Measured values as given in ChEMBL document CHEMBL1152089, “Alkyl ether derivatives of the FK-506 related, immunosuppressive macrolide L-683,742 (C31-O-desmethyl ascomycin)” (Bioorg Med Chem Lett, 1994).

Assays:
Mus musculus = organism: Mus musculus; assay: In vitro immunosuppressive activity against proliferation of antigen stimulated murine splenic T cells; type: functional, organism-based; settings: T-cell
[1] = target: T1, Peptidyl-prolyl cis-trans isomerase FKBP1A (Homo sapiens, UniProt P62942); assay: Ability to bind the major cystolic receptor FK506 binding protein 12 by using competitive binding assay
[2] = target: T1, Peptidyl-prolyl cis-trans isomerase FKBP1A; assay: Ability to bind the major cystolic receptor FKBP12 by using competitive binding assay

T1 sequence (P62942 whole entry): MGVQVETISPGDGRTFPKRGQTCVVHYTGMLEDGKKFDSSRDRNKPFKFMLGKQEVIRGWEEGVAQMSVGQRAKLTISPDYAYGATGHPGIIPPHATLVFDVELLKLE

Compound | IC50 (Mus musculus) | EC50 [1] | EC50 [2]
C/C=C/CO[C@@H]1CC[C@@H](/C=C(\C)[C@H]2OC(=O)[C@@H]3CCCCN3C(=O)C(=O)C3(O)O[C@H]([C@@H](OC)C[C@@H](C)C/C(C)=C/[C@@H](CC)C(=O)C[C@H](O)[C@H]2C)[C@@H](OC)C[C@@H]3C)C[C@H]1O | 8.6 nM | 9.2 nM | –
CC[C@@H]1/C=C(\C)C[C@H](C)C[C@H](OC)[C@H]2OC(O)(C(=O)C(=O)N3CCCC[C@H]3C(=O)O[C@H](/C(C)=C/[C@@H]3CC[C@@H](O)[C@H](OCc4cccs4)C3)[C@H](C)[C@@H](O)CC1=O)[C@@H](C)C[C@@H]2OC | 1.1 nM | 10.3 nM | –
CC[C@@H]1/C=C(\C)C[C@H](C)C[C@H](OC)[C@H]2OC(O)(C(=O)C(=O)N3CCCC[C@H]3C(=O)O[C@H](/C(C)=C/[C@@H]3CC[C@@H](OCc4ccsc4)[C@H](O)C3)[C@H](C)[C@@H](O)CC1=O)[C@@H](C)C[C@@H]2OC | 4.4 nM | 12 nM | –
C=CCO[C@@H]1CC[C@@H](/C=C(\C)[C@H]2OC(=O)[C@@H]3CCCCN3C(=O)C(=O)C3(O)O[C@H]([C@@H](OC)C[C@@H](C)C/C(C)=C/[C@@H](CC)C(=O)C[C@H](O)[C@H]2C)[C@@H](OC)C[C@@H]3C)C[C@H]1O | 5.5 nM | 6.1 nM | –
C=C(C)CO[C@@H]1CC[C@@H](/C=C(\C)[C@H]2OC(=O)[C@@H]3CCCCN3C(=O)C(=O)C3(O)O[C@H]([C@@H](OC)C[C@@H](C)C/C(C)=C/[C@@H](CC)C(=O)C[C@H](O)[C@H]2C)[C@@H](OC)C[C@@H]3C)C[C@H]1O | 3.4 nM | – | –
C/C=C/CO[C@@H]1C[C@H](/C=C(\C)[C@H]2OC(=O)[C@@H]3CCCCN3C(=O)C(=O)C3(O)O[C@H]([C@@H](OC)C[C@@H](C)C/C(C)=C/[C@@H](CC)C(=O)C[C@H](O)[C@H]2C)[C@@H](OC)C[C@@H]3C)CC[C@H]1O | 2.1 nM | 7 nM | –
CC[C@@H]1/C=C(\C)C[C@H](C)C[C@H](OC)[C@H]2OC(O)(C(=O)C(=O)N3CCCC[C@H]3C(=O)O[C@H](/C(C)=C/[C@@H]3CC[C@@H](O)[C@H](OCc4ccco4)C3)[C@H](C)[C@@H](O)CC1=O)[C@@H](C)C[C@@H]2OC | 3.6 nM | 4.6 nM | –
C=CC(C)O[C@@H]1CC[C@@H](/C=C(\C)[C@H]2OC(=O)[C@@H]3CCCCN3C(=O)C(=O)C3(O)O[C@H]([C@@H](OC)C[C@@H](C)C/C(C)=C/[C@@H](CC)C(=O)C[C@H](O)[C@H]2C)[C@@H](OC)C[C@@H]3C)C[C@H]1O (some centres not stated) | 6.6 nM | 14.9 nM | –
CC[C@@H]1/C=C(\C)C[C@H](C)C[C@H](OC)[C@H]2OC(O)(C(=O)C(=O)N3CCCC[C@H]3C(=O)O[C@H](/C(C)=C/[C@@H]3CC[C@@H](OC(C)C)[C@H](O)C3)[C@H](C)[C@@H](O)CC1=O)[C@@H](C)C[C@@H]2OC | 9.1 nM | – | –
CC[C@@H]1/C=C(\C)C[C@H](C)C[C@H](OC)[C@H]2O[C@@](O)(C(=O)C(=O)N3CCCC[C@H]3C(=O)O[C@H](/C(C)=C/[C@@H]3CC[C@@H](O)[C@H](O)C3)[C@H](C)[C@@H](O)CC1=O)[C@@H](C)C[C@@H]2OC | 1.8 nM | 5 nM | –
C=CC(C)O[C@@H]1C[C@H](/C=C(\C)[C@H]2OC(=O)[C@@H]3CCCCN3C(=O)C(=O)C3(O)O[C@H]([C@@H](OC)C[C@@H](C)C/C(C)=C/[C@@H](CC)C(=O)C[C@H](O)[C@H]2C)[C@@H](OC)C[C@@H]3C)CC[C@H]1O (some centres not stated) | 0.73 nM | 6.6 nM | –
CC[C@@H]1/C=C(\C)C[C@H](C)C[C@H](OC)[C@H]2OC(O)(C(=O)C(=O)N3CCCC[C@H]3C(=O)O[C@H](/C(C)=C/[C@@H]3CC[C@@H](O)[C@H](OC(C)C)C3)[C@H](C)[C@@H](O)CC1=O)[C@@H](C)C[C@@H]2OC | 0.59 nM | – | 3.4 nM
CC[C@@H]1/C=C(\C)C[C@H](C)C[C@H](OC)[C@H]2OC(O)(C(=O)C(=O)N3CCCC[C@H]3C(=O)O[C@H](/C(C)=C/[C@@H]3CC[C@@H](O)[C@H](OCc4ccsc4)C3)[C@H](C)[C@@H](O)CC1=O)[C@@H](C)C[C@@H]2OC | 3.2 nM | 5.7 nM | –
C=C(C)CO[C@@H]1C[C@H](/C=C(\C)[C@H]2OC(=O)[C@@H]3CCCCN3C(=O)C(=O)C3(O)O[C@H]([C@@H](OC)C[C@@H](C)C/C(C)=C/[C@@H](CC)C(=O)C[C@H](O)[C@H]2C)[C@@H](OC)C[C@@H]3C)CC[C@H]1O | 1.9 nM | – | –
C=CCO[C@@H]1C[C@H](/C=C(\C)[C@H]2OC(=O)[C@@H]3CCCCN3C(=O)C(=O)C3(O)O[C@H]([C@@H](OC)C[C@@H](C)C/C(C)=C/[C@@H](CC)C(=O)C[C@H](O)[C@H]2C)[C@@H](OC)C[C@@H]3C)CC[C@H]1O | 0.68 nM | 2.7 nM | –
C=CC[C@@H]1/C=C(\C)C[C@H](C)C[C@H](OC)[C@H]2O[C@@](O)(C(=O)C(=O)N3CCCC[C@H]3C(=O)O[C@H](/C(C)=C/[C@@H]3CC[C@@H](O)[C@H](OC)C3)[C@H](C)[C@@H](O)CC1=O)C(C)C[C@@H]2OC (single isomer, unassigned) [TACROLIMUS ANHYDROUS] | 0.29 nM | – | –
CC[C@@H]1/C=C(\C)C[C@H](C)C[C@H](OC)[C@H]2OC(O)(C(=O)C(=O)N3CCCC[C@H]3C(=O)O[C@H](/C(C)=C/[C@@H]3CC[C@@H](OCc4cccs4)[C@H](O)C3)[C@H](C)[C@@H](O)CC1=O)[C@@H](C)C[C@@H]2OC | 2.8 nM | 11.8 nM | –
CC[C@@H]1/C=C(\C)C[C@H](C)C[C@H](OC)[C@H]2OC(O)(C(=O)C(=O)N3CCCC[C@H]3C(=O)O[C@H](/C(C)=C/[C@@H]3CC[C@@H](OCc4ccco4)[C@H](O)C3)[C@H](C)[C@@H](O)CC1=O)[C@@H](C)C[C@@H]2OC | 7.8 nM | 15.6 nM | –
